Results from US4956376A, “Tetrazole carboxylic acids and esters and inhibition of blood platelet aggregation therewith” (Bristol-Myers Squibb Company, priority 1990, dated 1990).
Converted amounts (≈) assume the structure as drawn. Like-named read-outs stand apart in the source and are kept apart here.

System: human platelet aggregation
Type: cell-based
Conditions: human platelet rich plasma, ADP 0.5 mcg/mL
[1] = Table 1, read-out: Inhibition of Human Platelet Aggregation of Formula I Compounds (IC50) vs. ADP
[2] = Table 2, read-out: Inhibition of Human Platelet Aggregation of Formula II Compounds (IC50) Vs ADP

| IC50 [1] [µg/mL] | IC50 [2] [µg/mL] | SMILES |
| --- | --- | --- |
| > 32 |  | COC(=O)CCCCCCCCn1nnc(C(c2ccccc2)c2ccccc2)n1 [Example 1, Methyl 5-(diphenylmethyl)-2H-tetrazole-2-nonanoate] |
| 4.2 (≈ 10.7 µM) |  | O=C(O)CCCCCCCCn1nnc(C(c2ccccc2)c2ccccc2)n1 [Example 2, 5-(Diphenylmethyl)-2H-tetrazole-1-nonanoic acid] |
|  | 0.9 (≈ 2.1 µM) | COC(=O)COc1cccc(CCn2nnc(C(c3ccccc3)c3ccccc3)n2)c1 [Example 3, Methyl [3-[2-[5-(diphenylmethyl)-2H-tetrazol-2-yl]ethyl]-phenoxy]acetate] |
|  | 1.4 (≈ 3.38 µM) | O=C(O)COc1cccc(CCn2nnc(C(c3ccccc3)c3ccccc3)n2)c1 [Example 4, [3-[2-[5-(Diphenylmethyl)-2H-tetrazol-2-yl]ethyl]phenoxy]-acetic Acid] |
